Measurements published in patent US10857136B2, “Compounds for use in the prevention and/or treatment of non-alcoholic fat liver disease and non-alcoholic steatohepatitis” (SJT MOLECULAR RESEARCH, SL, priority 2017, dated 2020).

Experiments:
Type in all cases: in vivo
[1] = test system: DIO mice (C57Bl/6J male mice); assay: Insulin resistance (HOMA-IR), 36 days assay in DIO mice; conditions: 50 mg/kg orally twice daily for 36 days, days 1, 8, 15, 22, 29 and 36, vs saline control, similar to metformin 150 mg/kg
Protocol: To assess the performance of the compounds disclosed in decreasing insulin resistance, DIO mice (C57Bl/6J male mice) were treated with hydrochloride salts of compounds 4a, 5a; and with compound 7a during 36 days, versus a control treated with saline (0.9% NaCl) and versus DIO mice treated with metformin as a positive control.
(§1) For the assessment, 60 C57Bl/6 J male mice (16-week-old at delivery and 40 g of average weight), obtained from Charles River France put on high fat diet for 10 weeks. The animals were housed in ventilated and enriched housing cages (310×125×127 mm^3) throughout the experimental phase. Animals' cages litters were changed at least once a week. Mice were housed in groups of 10 mice on a normal 12 hours light cycle (at 08:00 pm lights were switched off), at 22±2° C. and 50±10% relative humidity. After reception, mice were maintained for three additional acclimation weeks. During the whole test (acclimation+treatment phase) a high fat diet (D12492 purchased from Research Diet Inc.; 60% fat) and tap water were provided ad libitum.
(§2) After the acclimation period, mice were fasted for 6 hours and blood glucose and plasma insulin were measured. Ten animals, those with lower blood glucose/plasma insulin, were discarded from the study. […]
Body weight were weekly measured as well as blood glucose and plasma insulin after a 6 hour-fasting.
Blood glucose was measured by sampling blood from the tip of the tail: a drop of blood is collected and placed on a glucometer strip (Accu-Check® glucometer, Roche, Switzerland). Plasma insulin was detected via ELISA (Elisa Kit, Eurobio, France) using 5 μl samples.
The Homeostatic model assessment-insulin resistance index (HOMA-IR), which is used to quantify insulin resistance, was calculated from fasting blood glucose, and plasma insulin values as follows: HOMA-IR=(mM glucose×μU/mL insulin)/22.5, being this constant a normalizing factor (Matthews et al., 1985, Diabetologia 28(7), 412-9).

[2] = test system: DIO mice (C57Bl/6J male mice); assay: Liver weight, 36 days assay in DIO mice; conditions: 50 mg/kg orally twice daily, after 36 days, vs saline control and metformin 150 mg/kg
Protocol: To assess the performance of the compounds disclosed decreasing liver overweight, DIO mice (C57Bl/6J male mice) were treated with compounds 4a and 5a during 36 days, versus a control of DIO mice treated with vehicle (0.9% NaCl) and DIO mice treated with Metformin as a positive control.
as §1, with “C57Bl/6J” for “C57Bl/6 J”, “France, were” for “France”, “(D12492;” for “(D12492”, “Inc” for “Inc.;”
as §2, with “study. Then, the others were randomized into 5 homogenous groups (n=10 mice per group) according to their blood glucose/plasma insulin levels (HOMA-IR) and body weight.” for “study.”

[3] = test system: DIO mice (C57Bl/6 J male mice); assay: Liver lipid content, 36 days assay in DIO mice (colorimetric kits); conditions: 50 mg/kg orally twice daily, after 36 days, vs saline control
Protocol: To assess the performance of the compounds disclosed in decreasing hepatic lipid content, DIO mice (C57Bl/6 J male mice) were treated with a hydrochloride salt of compound 4a; and with compound 7a during 36 days, versus a control of DIO mice treated with saline (0.9% NaCl) and versus DIO mice treated with Metformin as a positive control.
as §1, with “France, were” for “France”, “assessment” for “test”, “Inc;” for “Inc.;”
After the acclimation period, mice were fasted for 6 hours and blood glucose and plasma insulin were measured. Ten animals, those with lower blood glucose/plasma insulin, were discarded from the study. Then, the others were randomized into 5 homogenous groups (n=10 mice per group) according to their blood glucose/plasma insulin levels (HOMA-IR) and body weight. Mice were treated orally twice daily for 36 days with either saline solution (control group), SJT test compound (4a, 7a; 50 mg/kg) or metformin (150 mg/kg).
Finally, mice were sacrificed, and liver was collected, weighted and stored at −80° C. for additional analysis. Liver samples were dissected for liver lipids assay. Liver lipids were assayed using colorimetric commercial assay kits, from liver samples homogenate after lipid solubilization in deoxycholate as described by Miao et al., J Lipid Res, 2004, 45, 1410-17. Samples were homogenized with an ultrasound probe with 500 μl distilled water during few seconds. Then cholic acid at 1% is added to make lipids soluble. The measurement of the different lipids was then performed using colorimetric kits from Sobioda, France.

SMILES | insulin resistance (HOMA-IR) [1] | liver weight (liver overweight) [2] | hepatic cholesterol [3] | hepatic fatty acids [3] | hepatic triglycerides [3]
COc1ccc(-c2nc(C(=O)NCCCN)cc3c2[nH]c2ccccc23)cc1 [Compound 5a, N(-propylamine)-1-benzosubstituted-β-carboline-3-carboxamide] | lower insulin resistance compared to the control animals | lower liver weight than either mice treated with metformin or than the control animals | – | – | –
COc1ccc(-c2nc(C(=O)N/N=C/c3ccccc3)cc3c2[nH]c2ccccc23)cc1 [Compound 7a, 3-(carbohydrazyl-N′-phenylsubstitute)-1-benzosubstitute-β-carbolinic-3-carbohydrazide] | lower insulin resistance compared to the control animals | – | lower lipid levels than untreated control animals | lower lipid levels than untreated control animals | lower lipid levels than untreated control animals
